PMC8037310, “Thrombin-Derived Peptides Potentiate the Activity of Gram-Positive-Specific Antibiotics against Gram-Negative Bacteria” (Molecules, 2021)
Values joined by “and” are separate entries in the source; they are usually repeats but may differ in a detail not shown here. Equal entries are not always repeated. Where two headings read alike, the source gives them in different places. Peptide text beside a SMILES is read from it.

How the values were obtained:
E. coli BW25113 [1] = experiment: Checkerboard assay with erythromycin; format: cell-based, Escherichia coli; conditions: for MSCery: erythromycin concentration in the combination with the synergist giving the lowest FICi, E. coli BW25113; for MIC of the peptide (MICpep): synergist alone, from checkerboard with erythromycin; for MIC of the peptide (MICpep) / MSCpeptide, minimum synergistic concentration: E. coli BW25113, LB, 20 h 37 °C; for MSCpeptide, minimum synergistic concentration: synergist concentration in the combination with erythromycin giving the lowest FICi, OD600
A. baumannii ATCC17978 = experiment: microbe, parasite or virus in culture; format: cell-based, Acinetobacter baumannii; conditions: for MICpeptide: peptide alone; for MICpeptide / MSCpeptide / MSCrif: A. baumannii ATCC17978; for MSCpeptide: peptide concentration in the combination with rifampicin giving the lowest FICi; for MSCrif: rifampicin concentration in the combination giving the lowest FICi
Procedure: (§1) All peptides were screened for antimicrobial activity against E. coli BW25113, E. coli ATCC25922, and E. coli W3110. A select group of the peptides was further tested against E. coli mcr-1, E. coli EQASmcr-1 (EQAS 2016 412016126), E. coli EQASmcr-2 (EQAS 2016 KP37), E. coli EQASmcr-3 (EQAS 2017 2013-SQ352), K. pneumoniae ATCC13883, P. aeruginosa ATCC27853, and A. baumannii ATCC17978. The antimicrobial assay was performed according to CLSI guidelines. Bacteria were plated out directly from their glycerol stocks on blood agar plates, incubated overnight at 37 °C, and then kept in the fridge. The blood agar plates were only used for 2 weeks and then replaced.
(§2) One colony from a blood agar plates was inoculated in Lysogeny Broth (LB) at 37 °C until a 0.5 optical density at 600 nm (OD600) was reached (compared to the sterility control of LB). The bacterial suspension was diluted in fresh LB to 2.0 × 10^6 CFU/mL. The serial dilutions were prepared in polypropylene microtiter plates: a stock of the test compounds was prepared with a 2x final concentration in LB. Moreover, 100 µL of the stock was added to the wells of the top row of which 50 µL was used for the serial dilution. The bottom row of each plate was used as the positive (50 µL of LB) and negative controls (100 µL of LB) (6 wells each). Furthermore, 50 µL of the 2.0 × 10^6 CFU/mL bacterial stock was added to each well except for the negative controls, adding up to a total volume of 100 µL per well. The plates were sealed with a breathable seal and incubated for 20 h at 37 °C and 600 rpm.
(§3) Two 96-well plates were required per compound. A serial dilution of the compound was performed on two plates from row A–G using with LB as medium. Row H was filled with 25 µL medium. On a separate plate a negative control (8 wells, 100 μL medium) was prepared. For all concentrations of antibiotic a specific stock was prepared. 25 µL medium was added to the 0 µg/mL antibiotic columns (plate I, column 1–3). Of each antibiotic stock 25 µL was added to three columns to obtain triplicates for every condition. Both plates contained 50 µL in each well to which 50 µL bacterial stock was added (see the protocol of the MIC assays) and the plates were sealed. After incubation for 20 h at 37 °C while shaking, the breathable seals were removed and the density of the bacterial suspensions measured at 600 nm (OD600) using a Tecan Spark plate reader. The OD600 values were transformed to a 2D gradient with the negative control as minimum and the positive control (wells G1, G2, and G3) as maximum in excel. The FICi was calculated using Equation (1) with a FICi ≤ 0.5 indicating synergy. FICi = (MSCa/MICa) + (MSCb/MICb),(1)
(§4) Calculation of the FICi: MSCa = concentration of the […] in combination with the antibiotic that results in the lowest FICi. MICa = MIC of the antibiotic without synergist (row G). MSCb = concentration of the synergist in combination with the antibiotic that results in the lowest FICi. MICb = MIC of the synergist itself (Column 1–3, plate I).

P. aeruginosa ATCC27853 = experiment: Checkerboard assay with rifampicin; format: cell-based, Pseudomonas aeruginosa; conditions: for MICpeptide: peptide alone; for MICpeptide / MSCpeptide / MSCrif: P. aeruginosa ATCC27853; for MSCpeptide: peptide concentration in the combination with rifampicin giving the lowest FICi; for MSCrif: rifampicin concentration in the combination giving the lowest FICi; for FICi: with rifampicin vs P. aeruginosa ATCC27853, synergy defined as FICi ≤ 0.5
Procedure: as §1, §2, §3, §4

[2] = tested on: defibrinated sheep blood (red blood cells); experiment: Hemolysis assay; format: cell-based; conditions: 200 µg/mL compound, 20 h incubation at 37 °C with defibrinated sheep blood, PBS 0.002% Tween20, absorbance 415 nm, relative to 0.1% Triton X-100; n=3 technical replicates
How it was run: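 % hemolysis is supernatant absorbance at 415 nm, minus the buffer-only background, relative to 0.1% Triton X-100 lysis. Compound dilutions (200–1.56 µg/mL before adding cells) were incubated with an equal volume of red cells for 20 h at 37 °C and 500 rpm. Cells were washed and normalized in PBS/0.002% Tween20 to about 2.5 A415 at full lysis.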

[3] = tested on: E. coli EQASmcr-1 (EQAS 2016 412016126); format: cell-based, Escherichia coli; conditions: for MICpeptide: peptide alone; for MICpeptide / MSCpeptide / MSCrif: E. coli EQASmcr-1; for MSCpeptide: peptide concentration in the combination with rifampicin giving the lowest FICi; for MSCrif: rifampicin concentration in the combination giving the lowest FICi
E. coli mcr-1 = format: cell-based, Escherichia coli; conditions: for MICpeptide: peptide alone; for MICpeptide / MSCpeptide / MSCrif: E. coli mcr-1; for MSCpeptide: peptide concentration in the combination with rifampicin giving the lowest FICi; for MSCrif: rifampicin concentration in the combination giving the lowest FICi; for FICi: with rifampicin vs E. coli mcr-1
How it was run: (§5)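 Checkerboard of peptide serial dilutions against rifampicin concentrations in triplicate, in LB with 1.0 × 10^6 CFU/mL final inoculum after mixing the 2.0 × 10^6 CFU/mL stock 1:1, 20 h at 37 °C shaking. OD600 read; FICi = MSCa/MICa + MSCb/MICb, ≤0.5 taken as synergy.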

E. coli W3110 = format: cell-based, Escherichia coli; conditions: for MICpeptide: peptide alone; for MICpeptide / MSCpeptide / MSCrif: E. coli W3110; for MSCpeptide: peptide concentration in the combination with rifampicin giving the lowest FICi; for MSCrif: rifampicin concentration in the combination giving the lowest FICi
E. coli ATCC25922 = format: cell-based, Escherichia coli; conditions: for FICi: ATCC25922, 20 h; for MICpeptide: peptide alone; for MICpeptide / MSCpeptide / MSCrif: E. coli ATCC25922; for MSCpeptide: peptide concentration in the combination with rifampicin giving the lowest FICi; for MSCrif: rifampicin concentration in the combination giving the lowest FICi
How it was run: as §5

E. coli BW25113 [4] = experiment: microbe, parasite or virus in culture; format: cell-based, Escherichia coli; conditions: for MSCnovo: novobiocin concentration in the combination giving the lowest FICi; for MSCnovo / MSCpeptide: E. coli BW25113; for MICpeptide: synergist alone, E. coli BW25113, from checkerboard with novobiocin; for MSCpeptide: synergist concentration in the combination with novobiocin giving the lowest FICi
Procedure: as §1, §2, §3, §4

E. coli BW25113 [5] = experiment: microbe, parasite or virus in culture; format: cell-based, Escherichia coli; conditions: for FICi: BW25113, 20 h; for MICpeptide: synergist alone, E. coli BW25113, from checkerboard with vancomycin; for MSCpeptide: synergist concentration in the combination with vancomycin giving the lowest FICi; for MSCpeptide / MSCvanco: E. coli BW25113; for MSCvanco: vancomycin concentration in the combination giving the lowest FICi
Procedure: as §1, §2, §3, §4

[6] = EQASmcr-1 (EQAS 2016 412016126, 20 h)
[7] = with rifampicin vs A. baumannii ATCC17978
[8] = with rifampicin vs E. coli W3110, synergy defined as FICi ≤ 0.5

Row | Compound | MSCery (E. coli BW25113 [1]) [µg/mL] | MIC of the peptide (MICpep) (E. coli BW25113 [1]) [µg/mL] | MSCpeptide, minimum synergistic concentration (E. coli BW25113 [1]) | MICpeptide (A. baumannii ATCC17978) [µg/mL] | MSCpeptide (A. baumannii ATCC17978) [µg/mL] | MSCrif (A. baumannii ATCC17978) [µg/mL] | MICpeptide (P. aeruginosa ATCC27853) [µg/mL] | MSCpeptide (P. aeruginosa ATCC27853) [µg/mL] | MSCrif (P. aeruginosa ATCC27853) [µg/mL] | Hemolysis [2] | MICpeptide [3] [µg/mL] | MSCpeptide [3] [µg/mL] | MSCrif [3] [µg/mL] | MICpeptide (E. coli mcr-1) [µg/mL] | MSCpeptide (E. coli mcr-1) [µg/mL] | MSCrif (E. coli mcr-1) [µg/mL] | FICi (E. coli mcr-1) | MICpeptide (E. coli W3110) [µg/mL] | MSCpeptide (E. coli W3110) [µg/mL] | MSCrif (E. coli W3110) [µg/mL] | other results
1 | CC[C@H](C)[C@H](NC(=O)[C@@H](NC(=O)[C@H](CCCCN)NC(=O)[C@H](CCC(N)=O)NC(=O)[C@@H](NC(=O)[C@H](C)NC(=O)[C@H](CCCCN)NC(=O)[C@H](CCCCN)NC(=O)[C@H](CC(C)C)NC(=O)[C@H](CCCNC(=N)N)NC(=O)[C@H](Cc1ccccc1)NC(=O)[C@@H](N)C(C)C)[C@@H](C)CC)C(C)C)C(N)=O [peptide 14] (H-VFRLKKAIQKVI-NH2) | 12.5 | > 200 | 6.25 µg/mL | > 200 | 6.25 | 0.125 | > 200 | 50 | 0.5 | 0.9% and 1% | > 200 | 12.5 | 0.5 | > 200 | 25 | 0.75 | 0.1250 | > 200 | 50 | 0.5 | FICi (A. baumannii ATCC17978; ATCC17978, 20 h): 0.0781; FICi [3, 6]: 0.0938; FICi (E. coli W3110; W3110, 20 h): 0.1875; FICi (E. coli ATCC25922): 0.0313; MICpeptide (E. coli ATCC25922): > 200 µg/mL; MSCpeptide (E. coli ATCC25922): 6.25 µg/mL; MSCrif (E. coli ATCC25922): 0.063 µg/mL; FICi (E. coli BW25113 [4]; BW25113, 20 h): 0.0313; MSCnovo (E. coli BW25113 [4]): 6.25 µg/mL; MICpeptide (E. coli BW25113 [4]): > 200 µg/mL; MSCpeptide (E. coli BW25113 [4]): 6.25 µg/mL; FICi (E. coli BW25113 [5]): 0.2500; MICpeptide (E. coli BW25113 [5]): > 200 µg/mL; MSCpeptide (E. coli BW25113 [5]): 50 µg/mL; MSCvanco (E. coli BW25113 [5]): 50 µg/mL
2 | CC[C@H](C)[C@H](NC(=O)[C@@H](NC(=O)[C@H](CCCCN)NC(=O)[C@H](CCC(N)=O)NC(=O)[C@@H](NC(=O)[C@H](Cc1c[nH]c2ccccc12)NC(=O)[C@H](CCCCN)NC(=O)[C@H](CCCCN)NC(=O)[C@H](CC(C)C)NC(=O)[C@H](C)NC(=O)[C@H](Cc1ccccc1)NC(=O)[C@@H](N)C(C)C)[C@@H](C)CC)C(C)C)C(N)=O [peptide 10] (H-VFALKKWIQKVI-NH2) | 3.125 | 100 | 12.5 µg/mL | 50 | 3.125 | 0.125 | > 200 | 100 | 4 | 3.8% and 4% | 200 | 12.5 | 0.125 | > 200 | 25 | 0.188 | 0.0781 | 25 | 12.5 | 0.125 | FICi (A. baumannii ATCC17978; [7]): 0.1250; FICi (P. aeruginosa ATCC27853): 0.2500; FICi ([3]; with rifampicin vs E. coli EQASmcr-1): 0.0781; FICi (E. coli W3110; [8]): > 0.5; FICi (E. coli ATCC25922): 0.0313; MICpeptide (E. coli ATCC25922): > 200 µg/mL; MSCpeptide (E. coli ATCC25922): 6.25 µg/mL; MSCrif (E. coli ATCC25922): 0.063 µg/mL; MSCnovo (E. coli BW25113 [4]): 6.25 µg/mL; MICpeptide (E. coli BW25113 [4]): 100 µg/mL; MSCpeptide (E. coli BW25113 [4]): 6.25 µg/mL; FICi (E. coli BW25113 [4]; with novobiocin vs E. coli BW25113): 0.0781; FICi (E. coli BW25113 [5]): 0.1563; MICpeptide (E. coli BW25113 [5]): 100 µg/mL; MSCpeptide (E. coli BW25113 [5]): 12.5 µg/mL; MSCvanco (E. coli BW25113 [5]): 12.5 µg/mL
3 | CC[C@H](C)[C@H](NC(=O)[C@@H](NC(=O)[C@H](CCCCN)NC(=O)[C@H](CCC(N)=O)NC(=O)[C@@H](NC(=O)[C@H](Cc1c[nH]c2ccccc12)NC(=O)[C@H](CCCCN)NC(=O)[C@H](CCCCN)NC(=O)[C@H](CC(C)C)NC(=O)[C@H](CCCNC(=N)N)NC(=O)[C@H](Cc1ccccc1)NC(=O)[C@@H](N)C(C)C)[C@@H](C)CC)C(C)C)C(N)=O [peptide 6] (H-VFRLKKWIQKVI-NH2) | 12.5 | 12.5 | 3.125 µg/mL and 3.13 µg/mL | 50 | 3.125 | 0.125 | 50 | 25 | 1 | 4.0% | 100 | 6.25 | 0.125 | 100 | 12.5 | 0.188 | 0.1406 | 6.25 | 3.125 | 0.125 | FICi (A. baumannii ATCC17978; [7]): 0.1250; FICi (P. aeruginosa ATCC27853): > 0.5; FICi [3, 6]: 0.0781; FICi (E. coli W3110; [8]): > 0.5; FICi (E. coli ATCC25922): 0.0469; MICpeptide (E. coli ATCC25922): 200 µg/mL; MSCpeptide (E. coli ATCC25922): 6.25 µg/mL; MSCrif (E. coli ATCC25922): 0.063 µg/mL; FICi (E. coli BW25113 [4]; BW25113, 20 h): 0.1875; MSCnovo (E. coli BW25113 [4]): 25 µg/mL; MICpeptide (E. coli BW25113 [4]): 12.5 µg/mL; MSCpeptide (E. coli BW25113 [4]): 1.563 µg/mL; MICpeptide (E. coli BW25113 [5]): 25 µg/mL; MSCpeptide (E. coli BW25113 [5]): 3.125 µg/mL; MSCvanco (E. coli BW25113 [5]): 25 µg/mL
